The structures appear in SMILES notation. “Also recorded” adds a separate entry of the source. Some results are limits rather than exact numbers.

The text below walks through data of patent publication US11066436B2, “5′-phosphorothiolate mRNA 5′-end (cap) analogs, mRNA comprising the same, method of obtaining and uses thereof” (Uniwersytet Warszawski, priority 2016, dated 2021).

One experiment concerns the target T1, hDcpS enzyme (Homo sapiens, UniProt Q96C86).
T1 construct: made in house
T1 sequence (Q96C86 1-337): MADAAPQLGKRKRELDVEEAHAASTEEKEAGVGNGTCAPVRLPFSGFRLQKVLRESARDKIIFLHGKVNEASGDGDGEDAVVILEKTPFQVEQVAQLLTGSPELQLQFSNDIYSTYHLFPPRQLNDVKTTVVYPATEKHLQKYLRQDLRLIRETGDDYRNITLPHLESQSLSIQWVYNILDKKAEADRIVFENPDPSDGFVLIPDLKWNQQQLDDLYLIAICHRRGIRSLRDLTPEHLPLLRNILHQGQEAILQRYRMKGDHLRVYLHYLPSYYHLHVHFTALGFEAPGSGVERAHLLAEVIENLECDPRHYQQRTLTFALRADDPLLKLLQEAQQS
Nature of the experiment: IC50 determination for selected inhibitors of DcpS (fluorescence, m^7GMPF probe). The experiment is classed as biochemical. As to conditions: for IC50: m^7GMPF 60 μM, hDcpS 50 nM, tested compound 0-50 μM. The method, then:
Test 2. IC50 Determination for Selected Inhibitors
The buffer in this test and in the test 1 is the same. Ten mixture reactions were prepared at the same time and each of them contained a m^7GMPF (60 μM), hDcpS enzyme (50 nM) and the tested compound in concentration range between 0-50 μM in 200 μl of buffer. After appropriate time, when 30% of substrate were converted into product without inhibitor, the reaction was stopped by mixing with 100 μl of ACN. Samples of 25 μl were taken for analysis, followed by mixing with 90 μl of TBDS-fluorescein solution of concentration 2.5 μM in DMSO and incubated for 60 min. Next, 100 μl of 200 mM HEPES buffer pH=7.0 was added to the samples and the fluorescence was measured as described in general information. Based on the results, dependence of inhibitor concentration vs. fluorescence were plotted and the IC50 values were determined by fitting theoretical curve to data.

For experiment [1], the target named is T2, human DcpS enzyme (hDcpS) (Homo sapiens, UniProt Q96C86).
T2 construct: made in house
T2 sequence (Q96C86 1-337): T1 sequence (Q96C86 1-337)
Nature of the experiment: Susceptibility of cap analogs to degradation by DcpS enzyme (RP-HPLC). The class given is biochemical. The conditions noted are these: for DcpS susceptibility: cap analog 20 μM, hDcpS 100 nM, RP-HPLC; for hydrolysis by hDcpS: tested as substrates of hDcpS, RP HPLC. The method, then:
Test 1. The Susceptibility Study of Analogs to Degradation by DcpS Enzyme.
The aim of the test was to check if new 5′-thiophosphate cap analogs are hydrolyzed by human DcpS enzyme (hDcpS). Recombinant human protein encoding DcpS enzyme was expressed as described previously (Kowalska, Lewdorowicz et al. 2008). The susceptibility of new analogs to hDcpS hydrolysis is tested in 50 mM Tris-HCl buffer containing 200 mM KCl and 0.5 mM EDTA. Reaction mixture includes the tested cap analog (20 μM) and hDcpS enzyme (100 nM) in 400 μl of buffer. At the appropriate intervals 100 μl sample is collected from the reaction mixture. Sample is incubated at 98° C. for 2.5 min, and then cooled to 0° C. and analyzed on RP-HPLC under conditions described in general informations. In tests also commercially available inhibitor of DcpS was tested, the compound RG3039 (no. 000) (https://www.mda.org/quest/fda-approves-phase-1-clinical-trial-rg3039-sma), GppSG (no. 19), GpppSG (no. 20), as well m^7GpppG (no. 0) and m^7Gpp (no. 00) as controls. Exemplary results obtained are shown on FIG. 5 and Table 5.

As usually defined, the IC50 is the concentration that inhibits the measured activity by half. A higher IC50 goes with weaker potency. As to `C[n+]1cn([C@@H]2O[C@H](CSP(=O)(O)OP(=O)([S-])OP(=O)(O)SC[C@H]3O[C@@H](n4cnc5c(=O)[nH]c(N)nc54)C(O)C3O)C(O)C2O)c2nc(N)nc(O)c21` (single isomer, unassigned) [compound 33], 260 ± 40 nM corresponded to half-maximal inhibition against hDcpS enzyme (IC50). For the same compound, in experiment [1], the DcpS susceptibility entry was “resistant/inhibitor” and the “hydrolysis by hDcpS” value is reported as “stability in the presence of DcpS enzyme”.
`C[n+]1cn([C@@H]2O[C@H](CSP(=O)(O)OP(=O)([S-])OP(=O)(O)SC[C@H]3O[C@@H](n4cnc5c(=O)[nH]c(N)nc54)C(O)C3O)C(O)C2O)c2nc(N)nc(O)c21` (single isomer, unassigned) [compound 34]: at hDcpS enzyme (fluorescence method and fluorogenic probe), the “inhibition of hDcpS” value is on record as “best inhibitory properties”. It took 51 ± 8 nM to reach half-maximal inhibition against hDcpS enzyme (IC50). Also, in experiment [1], the DcpS susceptibility result is “resistant/inhibitor” and the “hydrolysis by hDcpS” value is “stability in the presence of DcpS enzyme”.
As for `C[n+]1cn([C@@H]2O[C@H](COP(=O)(O)OP(=O)([O-])SC[C@H]3O[C@@H](n4cnc5c(=O)[nH]c(N)nc54)C(O)C3O)C(O)C2O)c2nc(N)nc(O)c21` (stereo in doubt) [compound 21], in experiment [1], the DcpS susceptibility entry is “hydrolyzable” and the “hydrolysis by hDcpS” value is recorded as “hydrolyzed”.
`C[n+]1cn([C@@H]2O[C@H](CSP(=O)([O-])OP(=O)(O)OC[C@H]3O[C@@H](n4cnc5c(=O)[nH]c(N)nc54)C(O)C3O)C(O)C2O)c2nc(N)nc(O)c21` (stereo in doubt) [compound 23] showed an IC50 against hDcpS enzyme of 2810 ± 510 nM. In experiment [1], the DcpS susceptibility entry was “resistant/inhibitor” and the “hydrolysis by hDcpS” value was “stability in the presence of DcpS enzyme”.
`C[n+]1cn([C@@H]2O[C@H](COP(=O)(O)OP(=O)(O)O)[C@@H](O)[C@H]2O)c2nc(N)nc([O-])c21` [compound 00]: the IC50 on hDcpS enzyme was 4300 ± 780 nM. Also, in experiment [1], the DcpS susceptibility result was “resistant/inhibitor”.
In turn, `C[n+]1cn([C@@H]2O[C@H](CSP(=O)([O-])OP(=O)(O)O)C(O)[C@@H]2O)c2nc(N)nc(O)c21` (stereo partly drawn) [compound 12] displayed an IC50 at hDcpS enzyme of 1930 ± 380 nM. In experiment [1], the DcpS susceptibility result was “resistant/inhibitor” and the “hydrolysis by hDcpS” value was “stability in the presence of DcpS enzyme”.
With `Nc1nc2c(ncn2[C@@H]2O[C@H](COP(=O)(O)OP(=O)(O)SC[C@H]3O[C@@H](n4cnc5c(=O)[nH]c(N)nc54)[C@H](O)[C@@H]3O)[C@@H](O)[C@H]2O)c(=O)[nH]1` [compound 19], at hDcpS enzyme, the IC50 was over 100000 nM. In addition, the DcpS susceptibility entry in experiment [1] is listed as “hydrolyzable”.
On hDcpS enzyme, `Nc1nc2c(ncn2[C@@H]2O[C@H](COP(=O)(O)OP(=O)(O)OP(=O)(O)SC[C@H]3O[C@@H](n4cnc5c(=O)[nH]c(N)nc54)[C@H](O)[C@@H]3O)[C@@H](O)[C@H]2O)c(=O)[nH]1` [compound 20] gave an IC50 of over 100000 nM. Moreover, in experiment [1], the DcpS susceptibility result is recorded as “hydrolyzable”.
On to `C[n+]1cn([C@@H]2O[C@H](COP(=O)(O)OP(=O)(O)OP(=O)([O-])SC[C@H]3O[C@@H](n4cnc5c(=O)[nH]c(N)nc54)C(O)C3O)C(O)C2O)c2nc(N)nc(O)c21` (stereo partly drawn) [compound 22], for which, in experiment [1], the DcpS susceptibility result is given as “hydrolyzable” and the “hydrolysis by hDcpS” value is “hydrolyzed”.
At hDcpS enzyme, `C[n+]1cn([C@@H]2O[C@H](CSP(=O)([O-])OP(=O)(O)OP(=O)(O)OC[C@H]3O[C@@H](n4cnc5c(=O)[nH]c(N)nc54)C(O)C3O)C(O)C2O)c2nc(N)nc(O)c21` (stereo partly drawn) [compound 24] gave an IC50 of 840 ± 70 nM. In experiment [1], the DcpS susceptibility result is reported as “resistant/inhibitor” and the “hydrolysis by hDcpS” value is given as “resistant; also recorded: stability in the presence of DcpS enzyme”.
Taken in the same sequence, the figures for `C[n+]1cn([C@@H]2O[C@H](CSP(=O)([O-])OP(=O)(O)CP(=O)(O)OC[C@H]3O[C@@H](n4cnc5c(=O)[nH]c(N)nc54)C(O)C3O)C(O)C2O)c2nc(N)nc(O)c21` (stereo partly drawn) [compound 25] were 6250 ± 1220 nM, “resistant/inhibitor” and “stability in the presence of DcpS enzyme”.
Taken in the same sequence, the figures for `COC1C(O)[C@@H](CSP(=O)([O-])OP(=O)(O)OP(=O)(O)OC[C@H]2O[C@@H](n3cnc4c(=O)[nH]c(N)nc43)C(O)C2O)O[C@H]1n1c[n+](C)c2c(O)nc(N)nc21` (stereo partly drawn) [compound 26] were 12600 ± 5220 nM, “resistant/inhibitor” and “stability in the presence of DcpS enzyme”.
Taken in the same sequence, the figures for `C[n+]1cn([C@@H]2O[C@H](CSP(=O)(O)OP(=O)([S-])OP(=O)(O)OC[C@H]3O[C@@H](n4cnc5c(=O)[nH]c(N)nc54)C(O)C3O)C(O)C2O)c2nc(N)nc(O)c21` (stereo partly drawn) [compound 30] were 230 ± 40 nM, “resistant/inhibitor” and “stability in the presence of DcpS enzyme”.
Turning to `C[n+]1cn([C@@H]2O[C@H](CSP(=O)(O)OP(=O)([S-])OP(=O)(O)OC[C@H]3O[C@@H](n4cnc5c(=O)[nH]c(N)nc54)C(O)C3O)C(O)C2O)c2nc(N)nc(O)c21` (stereo partly drawn) [compound 31], the IC50 at hDcpS enzyme stood at 170 ± 20 nM. Moreover, in experiment [1], the DcpS susceptibility entry was “resistant/inhibitor” and the “hydrolysis by hDcpS” value is “stability in the presence of DcpS enzyme”.
Taken in the same sequence, the figures for `C[n+]1cn([C@@H]2O[C@H](CSP(=O)([O-])OP(=O)(O)OP(=O)(O)SC[C@H]3O[C@@H](n4cnc5c(=O)[nH]c(N)nc54)C(O)C3O)C(O)C2O)c2nc(N)nc(O)c21` (stereo partly drawn) [compound 32] were 330 ± 90 nM, “resistant/inhibitor” and “stability in the presence of DcpS enzyme”.
With `C[n+]1cn([C@@H]2O[C@H](COP(=O)(O)OP(=O)([S-])OP(=O)(O)SC[C@H]3O[C@@H](n4cnc5c(=O)[nH]c(N)nc54)C(O)C3O)C(O)C2O)c2nc(N)nc(O)c21` (stereo partly drawn) [compound 35], in experiment [1], the DcpS susceptibility result was “hydrolyzable” and the “hydrolysis by hDcpS” value was “hydrolyzed”.
Taken in the same sequence, the figures for `C[n+]1cn([C@@H]2O[C@H](COP(=O)(O)OP(=O)([S-])OP(=O)(O)SC[C@H]3O[C@@H](n4cnc5c(=O)[nH]c(N)nc54)C(O)C3O)C(O)C2O)c2nc(N)nc(O)c21` (stereo partly drawn) [compound 36] were “hydrolyzable” and “hydrolyzed”.
On to `C[n+]1cn([C@@H]2O[C@H](COP(=O)(O)CP(=O)(O)OP(=O)([O-])SC[C@H]3O[C@@H](n4cnc5c(=O)[nH]c(N)nc54)C(O)C3O)C(O)C2O)c2nc(N)nc(O)c21` (stereo partly drawn) [compound 37], for which the IC50 against hDcpS enzyme worked out at 5670 ± 1010 nM. In addition, in experiment [1], the DcpS susceptibility entry is “resistant/inhibitor” and the “hydrolysis by hDcpS” value is given as “resistant to hydrolysis; also recorded: stability in the presence of DcpS enzyme”.
Taken in the same sequence, the figures for `COC1C(O)[C@@H](COP(=O)(O)OP(=O)(O)OP(=O)([O-])SC[C@H]2O[C@@H](n3cnc4c(=O)[nH]c(N)nc43)C(O)C2O)O[C@H]1n1c[n+](C)c2c(O)nc(N)nc21` (stereo partly drawn) [compound 38] were 72000 ± 17000 nM, “hydrolyzable” and “hydrolyzed”.
